Broadly, the IC50 is the concentration needed to halve the response being measured.

Assay [1] in a line: Inhibition of 20S proteasome beta 1c derived from human erythrocytes preincubated for 1 hr using Z-nLPnLD-Glo peptide as substrate by proteasome-glo caspase-like assay.
Assay [2] in a line: Inhibition of human 20S proteasome beta 1i.
Assay [3] is described as follows: Inhibition of human 20S proteasome beta 5i preincubated for 1 hr followed by fluorescence based assay.
Assay [4] is described as follows: Inhibition of 20S proteasome beta 5c (unknown origin) preincubated for 1 hr followed by fluorescence based assay. The arrangement: species or system Homo sapiens.
The nature of assay [5]: Inhibition of 20S proteasome beta 5i/20S proteasome beta 1i in human PBMC cell lysate assessed as reduction in chymotrypsin-like activity pre-incubated for 30 mins followed by Meo-Suc-GLF-AM substrate addition and measured after 30 mins by fluorescence assay. In kind it is subcellular.
The species named for assay [6] is Homo sapiens. As to the kind of experiment: Selectivity ratio, ratio of IC50 for human 20S proteasome beta 1i to IC50 for 20S proteasome beta 5i (unknown origin).
For assay [7], the species on record is Homo sapiens. As to the kind of experiment: Selectivity ratio, ratio of IC50 for 20S proteasome beta 5c (unknown origin) to IC50 for human 20S proteasome beta 5i.
The subject of assay [8] is PBMC. In words: Cytotoxicity against human PBMC cells assessed as reduction in cell viability by CellTiter Glo assay. In kind it is functional, cell-based.
The species entered for assay [9] is Homo sapiens. As to the kind of experiment: Selectivity ratio, ratio of IC50 for 20S proteasome beta 1c (unknown origin) to IC50 for human 20S proteasome beta 5i.
Assay [10] can be described thus: Cytotoxicity against human plasmablasts assessed as reduction in cell viability by CellTiter Glo assay. The class given is functional. On the technique in general: In ATP-based viability assays light output follows the ATP content of the culture.
Assay [11] in a line: Cytotoxicity against human pDC assessed as reduction in cell viability by CellTiter Glo assay. In kind it is functional.
Assay [12] is described as follows: (§1) Cytotoxicity against anti-CD3/CD28-stimulated human CD4-positive T cells with CRISP/CAS9 20S proteasome beta 5c knockout assessed as reduction in cell viability measured on day 8 by CellTiter Glo assay relative to control. The class given is functional.
The species named for assay [13] is Homo sapiens. In words: Inhibition of 20S proteasome beta 5i in human PBMC cells assessed as induction of PSMB6 expression at 100 nM after 3 to 72 hrs by RT-PCR analysis. The class given is cell-based.
The species named for assay [14] is Homo sapiens. In words: Inhibition of 20S proteasome beta 5i in human PBMC cells assessed as induction of PSMB5 expression at 100 nM after 3 to 72 hrs by RT-PCR analysis. The class given is cell-based.
The species entered for assay [15] is Homo sapiens. As to the kind of experiment: Inhibition of 20S proteasome beta 5i in human PBMC cells assessed as induction of PSMB7 expression at 100 nM after 3 to 72 hrs by RT-PCR method. The class given is cell-based.
A short description of assay [16]: Cytotoxicity against anti-CD3/CD28-stimulated human CD4-positive T cells with CRISP/CAS9 20S proteasome beta 5i knockout assessed as reduction in cell viability measured on day 8 by CellTiter Glo assay relative to control. In kind it is functional.
The species entered for assay [17] is Homo sapiens. As to the kind of experiment: Selectivity ratio, ratio of IC50 for 20S proteasome beta 5c (unknown origin) to IC50 for human 20S proteasome beta 1i.
The test system of assay [18] is PBMC. In words: Induction of ubiquitin accumulation in human PBMC cells at 100 nM after 6 hrs by Western blot analysis. In kind it is functional, cell-based.
For assay [19], the species on record is Homo sapiens. The assay is described as §1. In kind it is functional.
Assay [20] is filed under the species Homo sapiens. In words: Inhibition of 20S proteasome beta 5i in human PBMC cells assessed as upregulation of 20S proteasome beta 5c level at 100 nM after 24 to 72 hrs by Western blot analysis. The class given is cell-based.
The subject of assay [21] is PBMC. As to the kind of experiment: Induction of apoptosis in human PBMC cells at 10 uM after 12 hrs by caspase 3,7-glo assay. The class given is functional, cell-based.

The source made the active and inactive calls. No cut-off for these calls is given here. Where only a bound is given, the exact number is not on record here.

As for `O=C(N[C@@H](Cc1ccc(Cl)cc1)B(O)O)c1cnn(-c2ccccc2)c1`, the IC50 in assay [1] was more than 20000 nM; in assay [2], 12 nM; in [3], 6.8 nM; in assay [4] it was 3200 nM; in assay [5] it was 130 nM.
`Cc1ccc(C[C@H](NC(=O)c2cn(Cc3ccccc3)nn2)B2O[C@@H]3C[C@@H]4C[C@@H](C4(C)C)[C@]3(C)O2)c(C)c1`: the IC50 in [1] is more than 20000 nM; in assay [2], 17 nM; in [3] it was 1.2 nM; in assay [4], 420 nM; in [5] it was 11 nM.
`Cc1c(C(=O)N[C@@H](CC(C)C)B(O)O)nnn1Cc1ccccc1`: the IC50 in [1] was more than 20000 nM; in assay [2] it was 15 nM; in [3], 40 nM; in [4] it was 7300 nM; in assay [5], 290 nM. Further, the Ratio IC50 in the assay listed under Homo sapiens [6] was 0.4.
As for `Cc1ccc(C[C@H](NC(=O)c2nnn(Cc3ccccc3)c2C)B2O[C@@H]3C[C@@H]4C[C@@H](C4(C)C)[C@]3(C)O2)c(C)c1`, the figures for the Ratio IC50 in the assay listed under Homo sapiens [7], in the assay filed under Homo sapiens [9] and in the assay listed under Homo sapiens [6] were 2200, more than 4800 and 2100, respectively. In addition, the concentration for half-maximal inhibition (IC50) was more than 20000 nM in [1]; more than 10000 nM with PBMC [8]; 8500 nM in assay [2]; 4.1 nM in assay [3]; 9100 nM in [4]; 9300 nM in assay [10]. In addition, the IC50 was more than 10000 nM in [11] and 79 nM in [5].
As for `CC(C)C[C@H](NC(=O)[C@H](Cc1ccccc1)NC(=O)c1cnccn1)B(O)O` [BORTEZOMIB], the “fold change (FC)” value in assay [12] and in [16] was 3 throughout. In addition, the half-inhibitory concentration (IC50) in assay [1] was determined as 32 nM; in the assay on PBMC [8] it was 2.7 nM; in [2], 7.9 nM; in assay [10], 3.9 nM; in assay [11], 5.2 nM. Besides, the inhibition entry in the assay listed under Homo sapiens [13], in the assay listed under Homo sapiens [14] and in the assay listed under Homo sapiens [15] was “Active” each time.
On to `O=C(N[C@@H](Cc1ccc(Cl)cc1)B(O)O)c1cn(Cc2ccccc2)nn1`, for which the 50% inhibitory concentration (IC50) is 530 nM in assay [1]; 3.9 nM in [2]; 0.54 nM in assay [3]; 46 nM in [4]; 2.3 nM in assay [5].
For the molecule `CC(C)C[C@H](NC(=O)c1cn(Cc2ccccc2)nn1)B(O)O`, the Ratio IC50 was 220 to 710 in the assay filed under Homo sapiens [7], 1300 to 3400 in the assay listed under Homo sapiens [17] and 0.14 in the assay listed under Homo sapiens [6]. Also, the half-inhibitory concentration (IC50) in assay [1] was determined as 71 nM; in assay [2], 0.55 nM; in [3], 4 nM; in assay [4] it was 890 nM; in assay [5], 45 nM.
Consider `C=CC(=O)N(CC(=O)N[C@@H](Cc1ccc(C)cc1C)B(O)O)c1ccccc1F`, for which the Ratio IC50 in the assay listed under Homo sapiens [7] was 283 to 296; in the assay filed under Homo sapiens [17] it was 1.1; in the assay filed under Homo sapiens [9], more than 2400; in the assay listed under Homo sapiens [6] it was 247. In addition, the outcome in the assay with PBMC [18] and in the assay with PBMC [21] was inactive. Moreover, in the assay filed under Homo sapiens [19], the outcome was Active. Further, the IC50 was more than 20000 nM in assay [1]; 5700 nM in the assay on PBMC [8]; 2200 nM in assay [2]; 8.1 nM in assay [3]; 2400 nM in assay [4]; 670 nM in [10]. Moreover, the IC50 in assay [11] stood at 6000 nM. Further, the inhibition result in the assay filed under Homo sapiens [13], in the assay filed under Homo sapiens [14], in the assay listed under Homo sapiens [20] and in the assay listed under Homo sapiens [15] was “Active” each time.
Turning to `CC(C)C[C@H](NC(=O)c1cn(C2CCCCC2)nn1)B(O)O`, the Ratio IC50 in the assay listed under Homo sapiens [7] is 710; in the assay listed under Homo sapiens [17], 1300 to 3400; in the assay listed under Homo sapiens [9], 120; in the assay filed under Homo sapiens [6], 0.2. Moreover, the 50% inhibitory concentration (IC50) in assay [1] turned out to be 480 nM; with PBMC [8] it was 7300 nM; in assay [2], 0.85 nM; in assay [3] it was 4.1 nM; in assay [4] it was 2900 nM; in assay [10], 2900 nM. The IC50 was 3700 nM in assay [11] and 60 nM in [5].
With `COc1ccc(C(=O)NCCn2cc(C(=O)N[C@@H](CC(C)C)B(O)O)nn2)c(OC)c1OC`, the Ratio IC50 in the assay filed under Homo sapiens [7] came to 17; in the assay filed under Homo sapiens [17], 5.2; in the assay listed under Homo sapiens [9], 640; in the assay filed under Homo sapiens [6], 5.2. Moreover, the 50% inhibitory concentration (IC50) worked out at 1400 nM in assay [1]; 100 nM in the assay on PBMC [8]; 8.1 nM in assay [2]; 2.2 nM in [3]; 37 nM in [4]; 54 nM in [10]. Further, the figures for the IC50 in assay [11] and in assay [5] were 22 nM and 34 nM, respectively. Besides, the inhibition result in the assay listed under Homo sapiens [13], in the assay filed under Homo sapiens [14] and in the assay filed under Homo sapiens [15] was “Active” throughout.
As for `COC[C@H](NC(=O)c1cc(C)on1)C(=O)N[C@H](C(=O)N[C@@H](CC(C)C)C(=O)[C@@]1(C)CO1)C1CC1`, the Ratio IC50 in the assay filed under Homo sapiens [7] worked out at 0.04; in the assay listed under Homo sapiens [17], 0.11. The 50% inhibitory concentration (IC50) in [1] stood at 11000 nM; in assay [2], 690 nM; in assay [3], 2100 nM; in [4], 78 nM. Further, the inhibition result in the assay listed under Homo sapiens [13], in the assay listed under Homo sapiens [14] and in the assay listed under Homo sapiens [15] was “Active” in each case.
`CC(C)C[C@H](NC(=O)c1cc(Cc2ccccc2)on1)B(O)O`: the IC50 is 1400 nM in assay [1]; 9.4 nM in assay [2]; 23 nM in assay [3]; 3000 nM in assay [4]; 85 nM in assay [5].
On to `CC(C)C[C@H](NC(=O)c1cn(C)nn1)B1O[C@@H]2C[C@@H]3C[C@@H](C3(C)C)[C@]2(C)O1`, for which, in the assay filed under Homo sapiens [7], the Ratio IC50 stood at 174. Moreover, the IC50 in assay [1] was more than 20000 nM; in assay [2], 9 nM; in assay [3], 55 nM; in assay [4], 9600 nM; in assay [5], 250 nM.
Turning to `O=C(N[C@@H](Cc1ccc(Cl)cc1)B(O)O)c1cn(-c2ccccc2)nn1`, the concentration for half-maximal inhibition (IC50) came to 5500 nM in assay [1]; 15 nM in assay [2]; 0.91 nM in assay [3]; 64 nM in [4]; 3.2 nM in assay [5].
For `Cc1c(C(=O)N[C@@H](CC(C)C)B(O)O)nnn1-c1ccccc1`, in that order: 18000 nM, 41 nM, 130 nM, more than 10000 nM and 310 nM.
Turning to `CC(C)C[C@H](NC(=O)c1cn(-c2ccccc2)nn1)B(O)O`, the half-maximal inhibitory concentration (IC50) in assay [1] worked out at 4200 nM; in [2], 0.58 nM; in [3] it was 1.4 nM; in [4] it was 760 nM; in assay [5] it was 25 nM. The Ratio IC50 in the assay filed under Homo sapiens [17] was in the range of 1300 to 3400.
On to `COc1ccc(C[C@H](NC(=O)[C@H](C)NC(=O)CN2CCOCC2)C(=O)N[C@@H](Cc2ccccc2)C(=O)[C@@]2(C)CO2)cc1`, for which the Ratio IC50 in the assay filed under Homo sapiens [7] is 9 to 20; in the assay listed under Homo sapiens [17] it was 1.6. In addition, the IC50 turned out to be 13000 nM in assay [1], 790 nM in assay [2], 145 nM in assay [3] and 1300 nM in assay [4]. Moreover, the inhibition entry in the assay filed under Homo sapiens [13], in the assay filed under Homo sapiens [14] and in the assay filed under Homo sapiens [15] was “Active” each time.
Turning to `O=C(N[C@@H](Cc1ccc(Cl)cc1)B(O)O)c1cnn(Cc2ccccc2)c1`, the half-maximal inhibitory concentration (IC50) was more than 20000 nM in assay [1]; 110 nM in assay [2]; 87 nM in assay [3]; 7700 nM in assay [4]; 470 nM in assay [5].
`Cc1ccc(C[C@H](NC(=O)c2cn(-c3ccccc3)nn2)B2O[C@@H]3C[C@@H]4C[C@@H](C4(C)C)[C@]3(C)O2)c(C)c1`: the IC50 in [1] was more than 20000 nM; in assay [2], 50 nM; in [3], 0.68 nM; in [4], 270 nM; in assay [5], 6.9 nM.
For `CC(C)C[C@H](NC(=O)c1nnc(Cc2ccccc2)[nH]1)B(O)O`, in that order: 61 nM, 6.3 nM, 19 nM, 350 nM and 200 nM.
For `Cc1ccc(C[C@H](NC(=O)c2cc(Cc3ccccc3)on2)B2O[C@@H]3C[C@@H]4C[C@@H](C4(C)C)[C@]3(C)O2)c(C)c1`, in that order: more than 20000 nM, 92 nM, 4.1 nM, 1300 nM and 80 nM.
For `CC(C)C[C@H](NC(=O)c1ncn(Cc2ccccc2)n1)B(O)O`, in that order: more than 20000 nM, 19 nM, 360 nM, more than 10000 nM and 8900 nM.

The values above are taken from ChEMBL document CHEMBL4373694 (J Med Chem, 2019).
